Laboratory results as given in the supplement of paper PMC10307832.

Legend:
Assay in all cases: relative viability (nuclei count vs DMSO), 5 days (fraction); higher = more cells survive
Quizartinib + Tozasertib = compound: CC(C)(C)c1cc(NC(=O)Nc2ccc(-c3cn4c(n3)sc3cc(OCCN5CCOCC5)ccc34)cc2)no1 [Quizartinib] + Cc1cc(Nc2cc(N3CCN(C)CC3)nc(Sc3ccc(NC(=O)C4CC4)cc3)n2)n[nH]1 [Tozasertib] (partner 0.1 µM)
Procedure, shortened: (§1)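 Lung cancer cell lines in 1536-well plates were dosed by pin tool the day after seeding, either with one drug alone or with a fixed anchor-drug dose plus five library-drug doses (not always all listed) in √10 steps. After 5 days, cells were fixed and their nuclei stained in one step (final 0.05% Triton X-100, 1% formaldehyde, 1 ug/ml Hoechst), then counted on 4× images. Relative viability is the nuclei count in treated wells divided by that in vehicle wells. Values are medians of duplicate plates.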

YM155 + Navitoclax = compound: COCC[n+]1c2c(n(Cc3cnccn3)c1C)C(=O)c1ccccc1C2=O [YM155] + CC1(C)CCC(c2ccc(Cl)cc2)=C(CN2CCN(c3ccc(C(=O)NS(=O)(=O)c4ccc(N[C@H](CCN5CCOCC5)CSc5ccccc5)c(S(=O)(=O)C(F)(F)F)c4)cc3)CC2)C1 [Navitoclax] (partner 0.5 µM)
Procedure, shortened: as §1

YM155 + Crizotinib = compound: COCC[n+]1c2c(n(Cc3cnccn3)c1C)C(=O)c1ccccc1C2=O [YM155] + C[C@@H](Oc1cc(-c2cnn(C3CCNCC3)c2)cnc1N)c1c(Cl)ccc(F)c1Cl [Crizotinib] (partner 1 µM)
Procedure, shortened: as §1

YM155 + Pemetrexed = compound: COCC[n+]1c2c(n(Cc3cnccn3)c1C)C(=O)c1ccccc1C2=O [YM155] + Nc1nc2[nH]cc(CCc3ccc(C(=O)N[C@@H](CCC(=O)O)C(=O)O)cc3)c2c(=O)[nH]1 [Pemetrexed] (partner 0.2 µM)
Procedure, shortened: as §1

Cell Line	relative viability (Quizartinib + Tozasertib; first compound 0.001 µM)	relative viability (Quizartinib + Tozasertib; first compound 0.003162 µM)	relative viability (Quizartinib + Tozasertib; first compound 0.01 µM)	relative viability (Quizartinib + Tozasertib; first compound 0.03162 µM)	relative viability (Quizartinib + Tozasertib; first compound 0.1 µM)	relative viability (YM155 + Navitoclax; first compound 0.002 µM)	relative viability (YM155 + Navitoclax; first compound 0.006325 µM)	relative viability (YM155 + Navitoclax; first compound 0.02 µM)	relative viability (YM155 + Navitoclax; first compound 0.06325 µM)	relative viability (YM155 + Crizotinib; first compound 0.002 µM)	relative viability (YM155 + Crizotinib; first compound 0.006325 µM)	relative viability (YM155 + Crizotinib; first compound 0.02 µM)	relative viability (YM155 + Crizotinib; first compound 0.06325 µM)	relative viability (YM155 + Pemetrexed; first compound 0.002 µM)	relative viability (YM155 + Pemetrexed; first compound 0.006325 µM)	relative viability (YM155 + Pemetrexed; first compound 0.02 µM)	relative viability (YM155 + Pemetrexed; first compound 0.06325 µM)
COR-L 105	0.344	0.343	0.42	0.36	0.347	0.672	0.892	0.783	0.501	0.907	0.807	0.591	0.385	1.01	1.04	1	0.602
ChaGo-K-1	0.235	0.234	0.209	0.205	0.197	1.14	0.928	0.785	0.93	1.1	1.06	1.17	0.784	0.261	0.243	0.26	0.254
EKVX	0.176	0.323	0.347	0.369	0.334	0.854	0.989	1.01	0.704	0.834	1.04	0.919	0.839	0.431	0.437	0.399	0.234
EMC-BAC-2	0.262	0.259	0.281	–	0.282	1.12	1.24	1.09	1.13	0.786	0.765	0.758	0.7	0.456	0.486	0.463	0.424
EPLC-272H	0.226	0.208	0.246	0.33	0.297	1.14	1.11	1.13	1.18	0.692	0.814	0.952	1.06	0.327	0.309	0.316	0.319
H3255	0.59	0.58	0.508	0.584	0.544	0.491	0.523	0.487	0.525	0.836	0.874	0.87	0.874	0.587	0.627	0.565	0.566
HARA	–	0.101	0.102	0.0944	0.122	1.11	1.14	1.13	1.14	1.04	1.13	1.09	0.995	–	0.235	0.228	0.268
HCC-15	–	0.429	0.602	0.29	0.2	0.66	0.673	0.72	0.706	0.747	0.887	0.815	0.711	0.239	0.229	0.23	0.242
HCC-44	–	0.867	0.849	0.645	0.689	0.983	1.04	0.988	0.914	0.805	0.755	0.845	0.776	0.615	0.722	0.624	0.643
HCC-78	0.453	0.325	0.365	0.368	0.384	0.79	0.717	0.767	0.942	0.328	0.322	0.325	0.371	0.896	0.954	0.935	0.913
HCC-366	0.11	0.0914	0.0628	0.0575	0.0582	1.08	1.04	0.989	0.843	0.519	0.478	0.612	0.401	0.161	0.187	0.158	0.165
HCC-827	0.356	0.516	0.458	0.405	0.411	1.03	1.11	1.01	0.992	0.866	0.968	0.918	0.89	0.301	0.328	0.253	0.303
HOP-62	0.358	0.363	0.416	0.352	0.33	0.97	0.969	0.979	1.11	0.91	1.01	0.919	0.983	0.372	0.365	0.325	0.289
LC-2-ad	0.373	0.436	0.451	–	0.451	0.414	0.479	0.456	0.509	0.446	0.428	0.496	0.453	0.287	0.248	0.28	0.262
LCLC-97TM1	0.183	0.218	0.172	0.248	0.207	0.319	0.394	0.391	0.376	0.401	0.4	0.442	0.318	–	0.193	0.181	0.18
LK-2	0.133	–	0.145	0.17	0.142	0.776	0.855	0.85	1.09	0.226	0.236	0.214	0.241	0.276	0.287	0.263	0.364
LOU-NH91	0.472	0.693	0.462	0.649	0.668	0.748	0.677	0.725	0.716	0.735	0.688	0.731	0.727	0.361	0.356	0.346	0.343
LU99A	0.288	0.274	0.262	0.259	0.272	0.753	0.729	0.756	0.677	0.499	0.549	0.633	0.474	0.164	0.2	0.153	0.177
LXF-289	0.16	0.207	0.196	0.21	0.247	0.94	0.949	0.957	0.87	0.812	0.787	0.867	0.684	0.855	0.914	0.827	0.783
